# Results: patent US20220125053A1, “Pesticidal Mixtures” (BASF SE, priority 2019, published 2022)
# Tests used:
# [1] = test system: Qoi resistant isolate of Septoria tritici; experiment: Microtest: activity against leaf blotch on wheat caused by Septoria tritici (SEPTTR), Qoi resistant isolate; assay type: cell-based; details: single compound, 7 days after inoculation
# Description: (§1) The active compounds were formulated separately as a stock solution having a concentration of 10000 ppm in dimethyl sulfoxide.
# (§2) 2. Activity against leaf blotch on wheat caused by Septoria tritici (SEPTTR) The stock solutions were mixed according to the ratio, pipetted onto a micro titer plate (MTP) and diluted with water to the stated concentrations. A spore suspension of a Qoi resistant isolate of Septoria tritici in an aqueous biomalt or yeast-bactopeptone-glycerine or DOB solution was then added. The plates were placed in a water vapor-saturated chamber at a temperature of 18° C. Using an absorption photometer, the MTPs were measured at 405 nm 7 days after the inoculation.
# (§3) The measured parameters were compared to the growth of the active compound-free control variant (100%) and the fungus-free blank value to determine the relative growth in % of the pathogens in the respective active compounds.
# (§4) These percentages were converted into efficacies.
# (§5) An efficacy of 0 means that the growth level of the pathogens corresponds to that of the untreated control; an efficacy of 100 means that the pathogens were not growing.
# (§6) The expected efficacies of active compound mixtures were determined using Colby's formula [R. S. Colby, “Calculating synergistic and antagonistic responses of herbicide combinations”, Weeds 15, 20-22 (1967)] and compared with the observed efficacies.
# [2] = test system: Microdochium nivale; experiment: Microtest: activity against Microdochium nivale (MONGNI); assay type: cell-based; details: single compound, 7 days after inoculation
# Procedure: as §1
# as §2, with “1.” for “2.”, “Microdochium nivale (MONGNI)” for “leaf blotch on wheat caused by Septoria tritici (SEPTTR)”, “Microdochium nivale” for “a Qoi resistant isolate of Septoria tritici”
# as §3, §4, §5, §6
Structure (SMILES),Observed efficacy ([1]; 0.004 ppm),Observed efficacy ([1]; 0.016 ppm),Observed efficacy ([1]; 0.063 ppm),Observed efficacy ([2]; 0.063 ppm),Observed efficacy ([2]; 0.016 ppm)
"CC(C)c1ccc(Cl)cc1CN(C(=O)c1c(C(F)F)nn(C)c1F)C1CC1 [Isoflucypram, N-(5-chloro-2-isopropylbenzyl)-N-cyclopropyl-3-(difluoromethyl)-5-fluoro-1-methyl-1H-pyrazole-4-carboxamide]",0,5,34,40,–
"Cc1cccc(-n2nnn(C)c2=O)c1COc1ccn(-c2ccc(Cl)cc2)n1 [Metyltetraprol, 1-[2-[[1-(4-chlorophenyl)pyrazol-3-yl]oxymethyl]-3-methyl-phenyl]-4-methyl-tetrazol-5-one]",–,0,1,–,32
